Assay results taken from publication PMC8518382, “Identification of a Bromodomain‐like Region in 15‐Lipoxygenase‐1 Explains Its Nuclear Localization” (Angewandte Chemie (International Ed. in English), 2021).

Legend:
[1] = molecular target: T1, 15-LOX-2 (Homo sapiens, UniProt O15296); assay: Sandwich ELISA of Labelox B biotinylation in A549 cell lysate, 15-LOX-2 capture; type: biochemical; settings: HRP-streptavidin detection, read-out: EC50 of labeling
T1 construct: endogenous in cells; host or cells: A549 cell lysate
T1 sequence (O15296 1-676): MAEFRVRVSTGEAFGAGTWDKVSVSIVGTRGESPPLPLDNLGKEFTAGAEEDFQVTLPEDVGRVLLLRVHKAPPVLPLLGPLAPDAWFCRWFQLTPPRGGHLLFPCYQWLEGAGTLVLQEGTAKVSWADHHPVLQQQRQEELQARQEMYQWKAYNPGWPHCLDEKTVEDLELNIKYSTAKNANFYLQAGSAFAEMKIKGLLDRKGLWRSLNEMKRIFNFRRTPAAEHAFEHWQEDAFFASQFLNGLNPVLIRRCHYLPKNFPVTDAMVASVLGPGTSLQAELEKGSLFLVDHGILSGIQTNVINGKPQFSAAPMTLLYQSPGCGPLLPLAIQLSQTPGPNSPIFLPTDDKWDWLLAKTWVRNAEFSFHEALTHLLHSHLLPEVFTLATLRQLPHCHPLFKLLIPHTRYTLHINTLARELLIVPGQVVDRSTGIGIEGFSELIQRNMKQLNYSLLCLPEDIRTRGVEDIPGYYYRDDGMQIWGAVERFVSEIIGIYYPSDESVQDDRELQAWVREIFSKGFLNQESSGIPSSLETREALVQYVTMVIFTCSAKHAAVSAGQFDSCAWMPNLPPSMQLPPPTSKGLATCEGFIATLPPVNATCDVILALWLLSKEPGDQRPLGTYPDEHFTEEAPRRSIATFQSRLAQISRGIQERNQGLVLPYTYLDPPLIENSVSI
Method: Labelox B efficiently labels endogenous LOXs. Lipoxygenase labeling by Labelox B was investigated using cell‐based assays. As a first step, labeling efficiency was estimated in intact RAW 264.7 macrophage cells that were treated with Labelox B in concentrations ranging between 1 μM and 100 μM with incubation times between 0.5 h and 6 h. […] As a next step, a sandwich ELISA assay was established in order to find proof that probe Labelox B is indeed labeling proteins with lipoxygenase enzyme activity. Towards this aim, A549 cell lysates were treated with sub‐micromolar to micromolar concentrations of Labelox B. Subsequently, the endogenous LOXs were captured on an anti‐LOX antibody precoated 96‐well plate followed by detection of Labelox B mediated biotinylation using HRP‐conjugated streptavidin. […] Furthermore, probe Labelox B enabled visualization of localized LOX activity in living cells (Figure 2 c). […] The fluorescence intensity increased with increasing doses of Labelox B and labeling was observed throughout the cells in the cytoplasm and the nucleus of A549.
Figure 2 Labelox B labels endogenous LOXs in a dose‐ and time‐dependent manner. a, b) Western blot analysis of Labelox B labeled LOXs in intact RAW 264.7 for indicated doses and time points. […] The pictures were captured by a Leica DM4000b fluorescence microscope.

[2] = molecular target: T2, 15-LOX-1 (Homo sapiens, UniProt P16050); assay: Jump dilution assay on recombinant 15-LOX-1; type: biochemical; set-up: His-tag (N); made in house; host or cells: E. coli BL21(DE3); settings: 10 µM for 20 min at room temperature, then 100-fold dilution
T2 sequence (P16050 1-662): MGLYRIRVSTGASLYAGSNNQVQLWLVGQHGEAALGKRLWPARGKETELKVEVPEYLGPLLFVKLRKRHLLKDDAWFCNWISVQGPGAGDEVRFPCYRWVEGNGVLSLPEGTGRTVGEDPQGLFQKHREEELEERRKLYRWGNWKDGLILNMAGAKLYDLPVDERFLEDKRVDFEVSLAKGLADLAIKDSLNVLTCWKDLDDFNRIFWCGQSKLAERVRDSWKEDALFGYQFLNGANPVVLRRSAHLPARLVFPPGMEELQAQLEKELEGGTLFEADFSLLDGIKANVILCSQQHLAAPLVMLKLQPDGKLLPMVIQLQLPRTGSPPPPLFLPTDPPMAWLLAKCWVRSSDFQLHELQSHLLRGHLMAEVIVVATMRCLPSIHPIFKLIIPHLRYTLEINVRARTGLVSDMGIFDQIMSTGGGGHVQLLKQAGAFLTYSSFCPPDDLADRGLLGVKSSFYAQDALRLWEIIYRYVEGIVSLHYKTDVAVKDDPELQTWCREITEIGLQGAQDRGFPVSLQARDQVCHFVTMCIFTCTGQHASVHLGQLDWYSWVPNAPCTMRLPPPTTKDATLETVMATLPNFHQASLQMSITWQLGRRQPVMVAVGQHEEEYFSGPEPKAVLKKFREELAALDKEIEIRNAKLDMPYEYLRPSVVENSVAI
Method: Figure S3. Labelox B labeled endogenous LOXs are immunoprecipitated by streptavidin beads. (A) A549 cell lysates were treated with. Labelox B. After labeling, free Labelox B was removed by Vivaspin
2. Labelox B labeled proteins were precipitated by Dynabeads and analyzed by Western blotting. (B) Uncropped Western blots for (A)
LOX-1 was incubated with Labelox B at 10 µM for 20min at room temperature to ensure 100% inhibition. Then, the enzyme/probe mixture was dilution 100-fold and employed for linoleic acid conversion. The group incubated with vehicle was condisered as positive control, while the group in […] of 15-LOX-1 was negative control. […]

`CCCCCC#CCC#CCOC(=O)CCCC[C@@H]1SC[C@@H]2NC(=O)N[C@@H]21` [Labelox B (3)] was tested, and the EC50 [1] was ~3.5 µM and the “Reversibility of inhibition” value [2] was “irreversibly inhibits”.
